According to patent US20140179681A1, “METHODS AND COMPOSITIONS OF TARGETED DRUG DEVELOPMENT” (priority 2010, published 2014):
pIC50: −log10 of the molar value. Read-outs that look alike come from different tables or passages of the source.

Assays:
MDBK line = test: MTT Cell Proliferation Assay, MDBK cells; type: cell-based, bovine; conditions: for IC50: Table 10, second of x/y(ratio): MDBK, three day treatment, unit not printed (doses in μM), read-out: MTT assay (second value); for pIC50: second value of 'a/b (c)', taken as MDBK cells, read-out: MTT Screen, second value of cell
In short: (§1)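 Each concentration ran in quadruplicate across duplicate plates, with compounds serially diluted in DMSO and delivered at 0.5% DMSO in 0.5% FBS medium for 3 days.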

EGFR = target: T1, EGFR (Homo sapiens, UniProt P00533); test: EGFR in-cell Western (ICW) screening protocol (EGFR inhibition assay); type: cell-based; conditions: for ICW assay: Table 10, % Inhibition of EGF dependent EGFR phosphorylation in A431 cells, compound 125 μM in assay
T1 construct: host or cells: A431
In short: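 In-cell Western read-out: fixed A431 cells were co-stained for total EGFR and phospho-EGFR (Tyr1173; some runs Tyr1045). Before fixation, cells were serum-starved for 2 h, exposed to compound for 4 h, then given EGF for 10 min, usually at 10 ng/ml final (6.6 or 12.5 ng/ml in some runs).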

[1] = tested on: epithelial carcinoma A431 cell line; test: MTT Cell Proliferation Assay, A431 cells; type: cell-based; conditions: for IC50: Table 10, first of x/y(ratio): A431, three day treatment, unit not printed (doses in μM), read-out: MTT assay (first value); for pIC50: taken as A431 cells, read-out: MTT Screen, first value of cell
In short: as §1

[2] = Homo sapiens, A-431, first value of 'a/b (c)'

T1 sequence (P00533 25-1210): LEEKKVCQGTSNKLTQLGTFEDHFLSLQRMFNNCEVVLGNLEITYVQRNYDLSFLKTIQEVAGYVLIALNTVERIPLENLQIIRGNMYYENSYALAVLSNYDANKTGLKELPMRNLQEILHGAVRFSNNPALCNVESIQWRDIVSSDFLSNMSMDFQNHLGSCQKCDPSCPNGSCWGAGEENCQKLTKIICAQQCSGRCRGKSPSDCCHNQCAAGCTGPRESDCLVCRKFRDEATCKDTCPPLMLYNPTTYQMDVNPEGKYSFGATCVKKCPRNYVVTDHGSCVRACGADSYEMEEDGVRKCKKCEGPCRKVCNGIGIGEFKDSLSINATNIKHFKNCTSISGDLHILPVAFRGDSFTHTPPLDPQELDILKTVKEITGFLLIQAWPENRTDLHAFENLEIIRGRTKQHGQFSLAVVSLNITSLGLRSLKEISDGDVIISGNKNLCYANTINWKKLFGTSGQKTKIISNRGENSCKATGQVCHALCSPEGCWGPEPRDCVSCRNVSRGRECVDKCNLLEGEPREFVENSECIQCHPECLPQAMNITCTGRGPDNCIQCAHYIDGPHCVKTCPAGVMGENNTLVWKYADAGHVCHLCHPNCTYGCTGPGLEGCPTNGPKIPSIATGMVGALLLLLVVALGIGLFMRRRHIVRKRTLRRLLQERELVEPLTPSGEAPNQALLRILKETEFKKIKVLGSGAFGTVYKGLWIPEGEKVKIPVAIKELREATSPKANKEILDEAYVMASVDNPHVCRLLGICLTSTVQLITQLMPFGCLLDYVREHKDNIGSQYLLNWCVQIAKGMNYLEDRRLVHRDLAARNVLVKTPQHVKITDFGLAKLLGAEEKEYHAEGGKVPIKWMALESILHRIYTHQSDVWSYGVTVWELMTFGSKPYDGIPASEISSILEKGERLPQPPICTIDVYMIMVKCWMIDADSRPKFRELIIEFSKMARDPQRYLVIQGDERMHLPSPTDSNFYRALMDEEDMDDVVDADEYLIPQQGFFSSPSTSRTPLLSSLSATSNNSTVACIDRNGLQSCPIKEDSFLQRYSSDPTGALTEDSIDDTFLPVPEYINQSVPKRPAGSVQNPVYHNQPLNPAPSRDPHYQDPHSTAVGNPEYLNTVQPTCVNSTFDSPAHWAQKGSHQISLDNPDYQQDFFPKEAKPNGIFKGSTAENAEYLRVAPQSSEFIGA

Row | SMILES | IC50 (MDBK line; Bos taurus, MDBK, 72 h) | ICW assay (EGFR) | IC50 ([1]; Homo sapiens, A-431, 72 h) | other results
1 | COc1ccc(NC(=S)Nc2ccc(S(=O)(=O)Nc3ccc(Cl)c(Cl)c3)cc2)cc1OC [AD4-12246] | 8.01 µM | 38.3844 | 8.36 µM | 
2 | Cc1cc(C)c(NS(=O)(=O)c2ccc(NC(=S)Nc3ccc(S(N)(=O)=O)cc3)cc2)c(C)c1 [AD4-12250] | 11.6 µM | 29.3683 | 12.7 µM | 
3 | COc1cc(NS(=O)(=O)c2ccc(NC(=S)NC(=O)/C=C/c3ccccc3)cc2)nc(OC)n1 [AD4-12262] |  |  |  | pIC50 (MDBK line): 4.36; ICW Screen (ICW Inhibition) (EGFR): 40.146; pIC50 ([1]; first value of 'a/b (c)'): 4.37
4 | COc1ccccc1/C=C/C(=O)NC(=S)Nc1ccc(S(=O)(=O)N2CCN(C)CC2)cc1 [AD4-12265] |  |  |  | pIC50 (MDBK line; Bos taurus, MDBK): 4.46; ICW Screen (ICW Inhibition) (EGFR): 31.19; pIC50 [1, 2]: 4.42
5 | COc1ccc(CC(=O)NC(=S)Nc2ccc(S(=O)(=O)Nc3nc(C)cc(C)n3)cc2)cc1 [AD4-12266] |  |  |  | pIC50 (MDBK line; Bos taurus, MDBK): 4.34; ICW Screen (ICW Inhibition) (EGFR): 29.289; pIC50 [1, 2]: 4.30
6 | Cc1cc(NS(=O)(=O)c2ccc(NC(=S)NC(=O)/C=C/c3ccccc3)cc2)no1 [AD4-12273] |  |  |  | pIC50 (MDBK line): 4.37; ICW Screen (ICW Inhibition) (EGFR): 33.104; pIC50 ([1]; first value of 'a/b (c)'): 4.50
7 | CN(c1ccccc1)S(=O)(=O)c1ccc(NC(=S)NC(=O)/C=C/c2ccc(F)cc2)cc1 [AD4-12280] |  |  |  | pIC50 (MDBK line; Bos taurus, MDBK): 4.75; pIC50 (MDBK line): 4.67; ICW Screen (ICW Inhibition) (EGFR): 41.439; pIC50 [1, 2]: 4.99; pIC50 ([1]; first value of 'a/b (c)'): 5.24
8 | CC1CCN(S(=O)(=O)c2ccc(NC(=S)NC(=O)C3CC3)cc2)CC1 [AD4-12286] |  |  |  | pIC50 (MDBK line; Bos taurus, MDBK): 4.52; ICW Screen (ICW Inhibition) (EGFR): 26.829; pIC50 [1, 2]: 4.81
9 | CCN(c1ccccc1)S(=O)(=O)c1ccc(NC(=S)Nc2ccccc2)cc1 [AD4-12389] |  | 72.5659 |  | IC50 (MDBK line): 6.07 µM; IC50 [1]: 12.2 µM
10 | CC(=O)c1cccc(NC(=S)Nc2ccc(S(=O)(=O)Nc3c(C)cc(C)cc3C)cc2)c1 [AD4-12391] | 9.09 µM | 37.4191 | 11.1 µM | 
11 | Cc1cc(C)c(NS(=O)(=O)c2ccc(NC(=S)Nc3ccccc3F)cc2)c(C)c1 [AD4-12395] | 6.96 µM | 57.5206 | 7.92 µM | 
12 | Cc1ccc(NC(=S)Nc2ccc(S(=O)(=O)Nc3cc(Cl)cc(Cl)c3)cc2)cc1C [AD4-12400] | 5.77 µM | 69.4793 | 4.05 µM | 
13 | CCC(C)c1ccc(NC(=S)Nc2ccc(S(=O)(=O)Nc3c(C)cc(C)cc3C)cc2)cc1 (stereo not shown) [AD4-12403] | 5.3 µM | 50.7196 | 4.03 µM | 
14 | COc1cccc(NC(=S)Nc2ccc(S(=O)(=O)Nc3ccc(Cl)cc3)cc2)c1 [AD4-12411] | 5.18 µM | 34.0556 | 6.7 µM | 
15 | Cc1ccc(NC(=S)Nc2ccc(S(=O)(=O)Nc3ccc(Cl)cc3)cc2)cc1 [AD4-12413] | 6.35 µM | 35.1946 | 6.83 µM | 
16 | O=S(=O)(Nc1ccc(Cl)cc1)c1ccc(NC(=S)Nc2cccc(C(F)(F)F)c2)cc1 [AD4-12423] | 5.77 µM | 129.155 | 6.35 µM | IC50 (MDBK line): 2.92 µM; IC50 [1]: 4.23 µM
17 | CC(C)c1ccc(NC(=S)Nc2ccc(S(=O)(=O)Nc3cc(Cl)cc(Cl)c3)cc2)cc1 [AD4-12424] | 4.73 µM | 82.3761 | 4.08 µM | 
18 | CCc1ccc(NC(=S)Nc2ccc(S(=O)(=O)Nc3ccc(Cl)c(Cl)c3)cc2)cc1 [AD4-12430] | 5.54 µM | 82.0877 | 4.07 µM | 
19 | O=S(=O)(Nc1ccc(Cl)c(Cl)c1)c1ccc(NC(=S)Nc2cccc(F)c2)cc1 [AD4-12431] | 5.57 µM | 26.7815 | 6.4 µM | 
20 | COc1ccc(NS(=O)(=O)c2ccc(NC(=S)Nc3ccc(OC)c(OC)c3)cc2)cc1 [AD4-12433] | 38.5 µM | 54.4095 | 29.1 µM | 

Row | SMILES | IC50 (MDBK line; Bos taurus, MDBK, 72 h) | ICW assay (EGFR) | IC50 ([1]; Homo sapiens, A-431, 72 h) | other results
21 | O=S(=O)(Nc1ccc(Cl)cc1)c1ccc(NC(=S)Nc2ccccc2C(F)(F)F)cc1 [AD4-12435] | 6.15 µM | 41.4281 | 6.67 µM | 
22 | CCc1ccc(NC(=S)Nc2ccc(S(=O)(=O)Nc3cc(Cl)cc(Cl)c3)cc2)cc1 [AD4-12436] | 5.53 µM | 108.826 | 5.47 µM | 
23 | Cc1ccc(NC(=S)Nc2ccc(S(=O)(=O)Nc3ccc(Cl)c(Cl)c3)cc2)cc1 [AD4-12438] | 5.9 µM | 53.245 | 5.69 µM | 
24 | Cc1cccc(NC(=S)Nc2ccc(S(=O)(=O)Nc3ccc(Cl)c(Cl)c3)cc2)c1 [AD4-12442] | 5.76 µM | 79.1185 | 5.59 µM | 
25 | CCOc1ccccc1NC(=S)Nc1ccc(S(=O)(=O)Nc2ccc(Cl)c(Cl)c2)cc1 [AD4-12443] | 6.91 µM | 44.7896 | 6.71 µM | 
26 | Cc1ccc(NC(=S)Nc2ccc(S(=O)(=O)Nc3cc(Cl)cc(Cl)c3)cc2)cc1 [AD4-12460] | 5.61 µM | 42.5115 | 6.33 µM | 
27 | Cc1cc(C)cc(NC(=S)Nc2ccc(S(=O)(=O)Nc3cc(Cl)cc(Cl)c3)cc2)c1 [AD4-12461] | 5.91 µM | 53.1391 | 4.06 µM | 
28 | CCOc1ccccc1NC(=S)Nc1ccc(S(=O)(=O)Nc2c(C)cc(C)cc2C)cc1 [AD4-12465] | 6.54 µM | 31.3476 | 9.92 µM | 
29 | CCC(C)c1ccc(NC(=S)Nc2ccc(S(=O)(=O)Nc3ccc(OC)cc3)cc2)cc1 (stereo not shown) [AD4-12468] | 5.41 µM | 77.7928 | 4.04 µM | 
30 | Cc1cccc(NC(=S)Nc2ccc(S(=O)(=O)Nc3cc(Cl)cc(Cl)c3)cc2)c1 [AD4-12472] | 5.42 µM | 64.2647 | 6.23 µM | 
31 | Cc1ccccc1NS(=O)(=O)c1ccc(NC(=S)Nc2ccc(F)c(Cl)c2)cc1 [AD4-12477] | 5.44 µM | 44.2167 | 6.65 µM | 
32 | COc1ccc(NC(=S)Nc2ccc(S(=O)(=O)Nc3cc(Cl)cc(Cl)c3)cc2)cc1OC [AD4-12481] | 11 µM | 42.006 | 10.4 µM | 
33 | COc1cc(NC(=S)Nc2ccc(S(=O)(=O)Nc3cc(Cl)cc(Cl)c3)cc2)cc(OC)c1 [AD4-12482] | 6.05 µM | 28.3382 | 6.54 µM | 
34 | COc1ccc(C)cc1NC(=S)Nc1ccc(S(=O)(=O)Nc2ccc(Cl)cc2)cc1 [AD4-12485] | 7.19 µM | 33.3993 | 6.98 µM | 
35 | Cc1ccccc1NS(=O)(=O)c1ccc(NC(=S)Nc2cccc(C(F)(F)F)c2)cc1 [AD4-12487] | 5.5 µM | 84.5602 | 6.45 µM | 
36 | O=S(=O)(Nc1ccc(Cl)cc1)c1ccc(NC(=S)Nc2cccc(Cl)c2)cc1 [AD4-12494] | 5.71 µM | 112.965 | 5.64 µM | 
37 | COc1ccc(C)cc1NC(=S)Nc1ccc(S(=O)(=O)Nc2cc(Cl)cc(Cl)c2)cc1 [AD4-12499] | 6.58 µM | 26.0767 | 6.99 µM | 
38 | CCCCc1ccc(NC(=S)Nc2ccc(S(=O)(=O)Nc3ccc(Cl)cc3)cc2)cc1 [AD4-12501] | 4.06 µM | 71.3823 | 4.06 µM | 
39 | COc1ccccc1NC(=S)Nc1ccc(S(=O)(=O)Nc2ccc(Cl)cc2)cc1 [AD4-12502] | 5.46 µM | 25.1182 | 6.97 µM | 
